Values joined by “and” are separate entries in the source; they are usually repeats but may differ in a detail not shown here. Identical values can stand only once.
How the values were obtained:
[1] = biological target: C. elegans (N2) complex I (NADH:ubiquinone oxidoreductase) (Caenorhabditis elegans, UniProt P24887+Q93873+Q94360); assay: biochemical; format: biochemical; conditions: for % Activity Complex I: 100 µM compound, relative to solvent control, mean (SEM); for Percent in vitro activity, Complex I (single replicate Rep1-Rep4) / Percent in vitro activity, Complex I (Mean): 100 μM of NPD compound, C. elegans mitochondria; for Percent in vitro activity, Complex I (single replicate Rep1-Rep4): individual biological replicates; for Percent in vitro activity, Complex I (Mean): mean of four biological replicates
Chain of C. elegans (N2) complex I (NADH:ubiquinone oxidoreductase) (Q94360 17-199): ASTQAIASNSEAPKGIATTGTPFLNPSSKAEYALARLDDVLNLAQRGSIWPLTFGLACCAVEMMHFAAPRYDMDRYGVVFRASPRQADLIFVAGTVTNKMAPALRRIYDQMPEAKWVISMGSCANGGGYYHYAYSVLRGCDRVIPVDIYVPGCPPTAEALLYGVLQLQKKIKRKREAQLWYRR
Chain of C. elegans (N2) complex I (NADH:ubiquinone oxidoreductase) (P24887 whole entry): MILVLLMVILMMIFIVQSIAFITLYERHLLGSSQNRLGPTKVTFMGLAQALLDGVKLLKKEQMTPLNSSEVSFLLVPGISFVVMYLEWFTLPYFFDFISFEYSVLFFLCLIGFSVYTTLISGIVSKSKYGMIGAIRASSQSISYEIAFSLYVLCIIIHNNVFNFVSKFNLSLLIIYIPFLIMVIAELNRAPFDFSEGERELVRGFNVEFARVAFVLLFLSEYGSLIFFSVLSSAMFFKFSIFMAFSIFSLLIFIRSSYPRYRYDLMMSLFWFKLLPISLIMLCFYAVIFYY
Chain of C. elegans (N2) complex I (NADH:ubiquinone oxidoreductase) (Q93873 31-482): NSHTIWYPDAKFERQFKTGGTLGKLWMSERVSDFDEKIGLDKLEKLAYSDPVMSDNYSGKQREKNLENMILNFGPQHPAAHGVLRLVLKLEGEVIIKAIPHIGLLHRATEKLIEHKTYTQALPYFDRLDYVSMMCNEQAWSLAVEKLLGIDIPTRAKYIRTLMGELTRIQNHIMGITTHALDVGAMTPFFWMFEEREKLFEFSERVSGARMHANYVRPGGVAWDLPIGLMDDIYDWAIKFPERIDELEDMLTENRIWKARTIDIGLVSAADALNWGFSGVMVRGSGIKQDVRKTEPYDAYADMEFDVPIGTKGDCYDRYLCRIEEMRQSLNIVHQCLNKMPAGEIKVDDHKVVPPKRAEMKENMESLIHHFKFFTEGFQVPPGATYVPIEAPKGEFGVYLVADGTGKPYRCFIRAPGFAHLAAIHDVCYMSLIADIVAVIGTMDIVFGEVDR
Procedure, shortened: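 Activity expressed as percent of solvent control. Complex I rate came from DCIP reduction at 600 nm (initial linear slope, 15 min) with NADH and decylubiquinone as substrates, plus antimycin A and KCN, in pH 7.5 KPi/BSA buffer. Isolated, thrice freeze-thawed mitochondria used at 0.2 mg/mL.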

[2] = biological target: C. elegans complex II (succinate dehydrogenase) (Caenorhabditis elegans, UniProt O62215+P41956+Q09545); assay: In vitro complex II activity assay, C. elegans mitochondria; format: biochemical; conditions: for % Activity Complex II: 100 µM compound, relative to solvent control, mean (SEM); for Percent in vitro activity, Complex II (single replicate Rep1-Rep4) / Percent in vitro activity, Complex II (Mean): 100 μM of NPD compound, C. elegans mitochondria; for Percent in vitro activity, Complex II (single replicate Rep1-Rep4): individual biological replicates; for Percent in vitro activity, Complex II (Mean): mean of four biological replicates
Chain of C. elegans complex II (succinate dehydrogenase) (P41956 30-182): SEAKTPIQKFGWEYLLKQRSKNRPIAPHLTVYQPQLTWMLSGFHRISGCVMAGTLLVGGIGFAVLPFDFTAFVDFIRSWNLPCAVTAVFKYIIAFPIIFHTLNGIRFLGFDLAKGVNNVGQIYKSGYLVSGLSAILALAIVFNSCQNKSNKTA
Chain of C. elegans complex II (succinate dehydrogenase) (Q09545 22-298): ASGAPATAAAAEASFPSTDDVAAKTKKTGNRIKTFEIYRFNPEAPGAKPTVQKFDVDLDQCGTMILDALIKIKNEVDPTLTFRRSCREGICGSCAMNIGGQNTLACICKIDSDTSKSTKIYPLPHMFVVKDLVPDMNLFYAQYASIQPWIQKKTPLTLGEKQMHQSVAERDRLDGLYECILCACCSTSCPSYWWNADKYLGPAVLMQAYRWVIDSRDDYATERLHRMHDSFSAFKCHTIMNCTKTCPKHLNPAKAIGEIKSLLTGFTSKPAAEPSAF
Chain of C. elegans complex II (succinate dehydrogenase) (Q09508 32-646, further chain): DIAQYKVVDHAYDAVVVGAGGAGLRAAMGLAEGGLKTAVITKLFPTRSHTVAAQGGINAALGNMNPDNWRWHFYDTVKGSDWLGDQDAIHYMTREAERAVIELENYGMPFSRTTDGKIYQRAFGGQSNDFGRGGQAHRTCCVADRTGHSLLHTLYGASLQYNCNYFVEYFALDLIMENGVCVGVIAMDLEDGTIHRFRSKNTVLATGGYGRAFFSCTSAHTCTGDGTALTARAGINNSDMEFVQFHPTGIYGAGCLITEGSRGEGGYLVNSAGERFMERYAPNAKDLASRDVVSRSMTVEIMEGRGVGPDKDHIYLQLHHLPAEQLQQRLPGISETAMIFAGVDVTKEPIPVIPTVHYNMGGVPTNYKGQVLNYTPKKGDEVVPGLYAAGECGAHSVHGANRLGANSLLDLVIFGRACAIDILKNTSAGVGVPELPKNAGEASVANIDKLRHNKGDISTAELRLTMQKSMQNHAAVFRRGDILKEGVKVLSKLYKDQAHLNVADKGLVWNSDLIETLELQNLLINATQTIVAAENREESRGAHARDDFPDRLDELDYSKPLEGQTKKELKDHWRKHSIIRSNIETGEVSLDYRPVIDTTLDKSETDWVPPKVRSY
Chain of C. elegans complex II (succinate dehydrogenase) (O62215 31-145): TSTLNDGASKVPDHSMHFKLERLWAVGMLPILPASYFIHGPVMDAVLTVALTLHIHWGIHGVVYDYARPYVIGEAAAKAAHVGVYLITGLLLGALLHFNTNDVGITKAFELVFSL
Description: (§1) Mitochondria were isolated from the following free-living nematode strains: C. elegans—N2, CB3474, ECA882, ECA917, ECA1075, ECA1080; C. briggsae—AF16; P. pacificus—PS312; and P. hermaphrodita—B178. With the exception of the P. hermaphrodita strain B178, adult worms of each strain were grown in bulk through liquid culture to obtain mitochondria in sufficient quantities. Due to poor growth in liquid media, mixed stage populations of P. hermaphrodita were washed off and collected from NGM plates seeded with OP50. The isolation of mitochondria from all free-living nematode strains followed the protocol previously outlined in Burns et al.[24]. In brief, a 1 L saturated culture of E. coli HB101 was concentrated 20-fold in 50 mL complete S-medium. ~500,000 L1 worms synchronized from an embryo preparation performed the day prior were added to the S-media/HB101 suspension and grown to adulthood over the course of 3.5 days at 20 °C with shaking at 165 rpm. Following growth, worms were collected in 10 ×15 mL conical tubes and washed 7 times in M9 buffer. Worm suspensions were then combined into a single 15 mL conical tube and diluted to a final volume of 15 mL with M9 buffer. 1 mL aliquots of worm suspension were then distributed to 15 × 1.5 mL screw-cap microcentrifuge tubes and were pelleted at 500 g for 1 min. Excess M9 was aspirated without disturbing the worm pellet. 600 μL ice-cold isolate buffer A (250 mM sucrose, 10 mM Tris (pH 7.5), 1 mM EDTA, 1 mM PMSF (freshly prepared)) and 300 μL cold glass beads were then added to each tube. Tubes were incubated on ice for 10 min, and the worms were then lysed by bead beating (6 x 30 s, with 1 min cooling intervals). Tubes containing worm lysate were centrifuged at 1,000 g for 10 min at 4 °C and the supernatant was transferred to 15 new microcentrifuge tubes on ice. The tubes were centrifuged a second time at 1,000 g for 10 min at 4 °C and the supernatant was once again transferred to 15 new microcentrifuge tubes on ice. These tubes were then centrifuged at 16,000 g for 10 min at 4 °C. The resulting mitochondrial pellet was washed twice by re-suspension in 300 μL of ice-cold isolate buffer B (250 mM sucrose, 10 mM Tris (pH 7.5), 1 mM EDTA). Following the final wash, isolation buffer was aspirated from each tube and the pellets were flash-frozen in ethanol/dry ice and stored at −80 °C until needed.
(§2) The enzymatic activities of individual ETC complexes (I-IV) were assessed spectrophotometrically in isolated mitochondria using a Varioskan LUX Multimode plate reader (ThermoFisher Scientific). Mitochondrial pellets previously isolated were thawed on ice and resuspended in ice-cold isolation buffer (250 mM sucrose, 10 mM Tris (pH 7.5), 1 mM EDTA). The BCA assay (Walker, 1994) was used to quantify the protein concentration of mitochondria suspensions; solutions were diluted to a concentration of 0.2 mg/mL for use in all assays. For the complex I assay, mitochondria pellets were freeze-thawed on ice three times to increase enzyme accessibility. […] 20 μL mitochondria suspension was then added/mixed with a pipette to initiate the reaction. Immediately following the addition of mitochondria, absorbance was measured (complex I and II: 600 nm; complex III and IV: 550 nm) in 30 s intervals over 15 min. Enzymatic activity was determined in each reaction by plotting absorbance versus time and calculating the slope of the curve during the initial linear phase of the reaction. […] Percent activity of each complex was calculated by dividing the enzyme-specific activity of each well by the enzyme-specific activity of the corresponding solvent controls.
Complex II (succinate dehydrogenase) activity was assessed using the DCIP-coupled method previously described in Burns et al.[24].
For preliminary screens of hit compounds, compounds were screened at 100 μM; data are the average of at least three biological replicates. The complex I and II activity assays were used for additional dose-response experiments.

[3] = test system: C. elegans complex III (decylubiquinol-cytochrome C reductase); assay: In vitro complex III activity assay, C. elegans mitochondria; format: biochemical, Caenorhabditis elegans; conditions: for % Activity Complex III: 100 µM compound, relative to solvent control, mean (SEM); for Percent in vitro activity, Complex III (single replicate Rep1-Rep4) / Percent in vitro activity, Complex III (Mean): 100 μM of NPD compound, C. elegans mitochondria; for Percent in vitro activity, Complex III (single replicate Rep1-Rep4): individual biological replicates; for Percent in vitro activity, Complex III (Mean): mean of four biological replicates
Description: as §1, §2
Antimycin A-sensitive complex III (decylubiquinol-cytochrome C […]) activity was determined by measuring the reduction of cytochrome C (CytC) as optimized in Luo et al.[59]. Decylubiquinol for complex III assays was prepared fresh as described in Janssen and Boyle, 2019[60].

[4] = test system: C. elegans complex IV (cytochrome C oxidase); assay: In vitro complex IV activity assay, C. elegans mitochondria; format: biochemical, Caenorhabditis elegans; conditions: for % Activity Complex IV: 100 µM compound, relative to solvent control, mean (SEM); for Percent in vitro activity, Complex IV (single replicate Rep1-Rep4) / Percent in vitro activity, Complex IV (Mean): 100 μM of NPD compound, C. elegans mitochondria; for Percent in vitro activity, Complex IV (single replicate Rep1-Rep4): individual biological replicates; for Percent in vitro activity, Complex IV (Mean): mean of four biological replicates
Description: as §1, §2
Complex IV (cytochrome C oxidase) activity was determined by following the oxidation of CytC in the protocol outlined by Janssen and Boyle, 2019[60]. Reduced CytC was prepared fresh by adding 1 μL increments of 1 M dithiothreitol to a 1 mM solution of CytC and vortexing. A colour change from brown to orange/pink signals when CytC has been reduced.

C. elegans = C. elegans chemical screens of RIKEN NPD libraries at 50 μM (hit identification in KCN survival and development/viability assays); format: cell-based, Caenorhabditis elegans; conditions: screened at 50 μM in triplicate; hit = modified z-score < −3; KCN = KCN survival assay, Dev. & Viability = development/viability assay
L1 wild-type C. elegans = conditions: for LC50: caenorhabditis elegans
HEK293 cells = conditions: read-out: HEK293 Cell Viability Assay LC50; 2 days exposure

| SMILES | % Activity Complex I [1] | Percent in vitro activity, Complex I (single replicate Rep1-Rep4) [1] | Percent in vitro activity, Complex I (Mean) [1] | % Activity Complex II [2] | Percent in vitro activity, Complex II (single replicate Rep1-Rep4) [2] | Percent in vitro activity, Complex II (Mean) [2] | % Activity Complex III [3] | Percent in vitro activity, Complex III (single replicate Rep1-Rep4) [3] | Percent in vitro activity, Complex III (Mean) [3] | % Activity Complex IV [4] | Percent in vitro activity, Complex IV (single replicate Rep1-Rep4) [4] | Percent in vitro activity, Complex IV (Mean) [4] | Hit Type (C. elegans) | C. elegans L1 relative motility, 3-hour post 200 µM KCN dilution (L1 wild-type C. elegans) | LC50 (L1 wild-type C. elegans) | CC50 (HEK293 cells) |
| --- | --- | --- | --- | --- | --- | --- | --- | --- | --- | --- | --- | --- | --- | --- | --- | --- |
| O=C(/C=C/c1ccccc1)/C=C/c1ccccc1 [FSL0005] | 91.90 (0.78) % | 93.303% and 89.704% and 95.600% and 88.991% | 91.900% | 80.91 (2.02) % | 88.395% and 79.227% and 70.277% and 85.744% | 80.911% | 103.92 (1.25) % | 104.719% and 106.444% and 107.817% and 96.693% | 103.918% | 92.29 (3.01) % | 87.534% and 94.293% and 79.459% and 107.854% | 92.285% | KCN | 0.000 | 0.93 µM | 7.48 µM |
| O=C1OC(c2ccccc2)=NC1=CC=Cc1ccccc1 (mixture of isomers) [NPD8298] | 79.90 (1.23) % | 86.721% and 79.429% and 78.427% and 75.015% | 79.898% | 110.37 (5.08) % | 109.359% and 85.283% and 134.975% and 111.861% | 110.370% | 101.94 (2.48) % | 91.530% and 111.178% and 95.430% and 109.622% | 101.940% | 108.05 (2.17) % | 99.305% and 106.055% and 106.771% and 120.048% | 108.045% | KCN | 0.014 | 2.57 µM | > 50 µM |
| COc1ccc(N=c2cc(-c3ccc(OC)cc3)oc3ccc(O)cc23)cc1 [NPD8034] | 99.30 (2.57) % | 99.316% and 113.812% and 92.579% and 91.475% | 99.295% | 89.02 (4.77) % | 117.368% and 83.101% and 77.239% and 78.358% | 89.016% | 95.08 (1.51) % | 95.115% and 96.990% and 101.326% and 86.891% | 95.080% | 96.04 (2.78) % | 88.996% and 91.859% and 90.669% and 112.640% | 96.041% | KCN |  | 12 µM | 11.2 µM |
| Cc1cc(O)c(C(=O)/C=C/c2ccccc2)c(=O)o1 [NPD8366] | 102.66 (1.57) % | 109.574% and 101.002% and 105.233% and 94.820% | 102.657% | 86.41 (3.37) % | 86.839% and 91.030% and 67.920% and 99.847% | 86.409% | 76.74 (1.10) % | 80.994% and 79.847% and 74.350% and 71.759% | 76.737% | 97.72 (2.77) % | 88.563% and 105.997% and 87.809% and 108.514% | 97.721% | KCN |  | 11.6 µM | 19.7 µM |
| Cc1cc(O)c(C(=O)/C=C/c2ccc(C(C)C)cc2)c(=O)o1 [NPD6240] | 102.09 (1.80) % | 109.404% and 106.987% and 94.906% and 97.066% | 102.091% | 87.73 (3.81) % | 105.436% and 95.089% and 72.487% and 77.924% | 87.734% | 58.21 (2.30) % | 63.255% and 68.621% and 49.848% and 51.103% | 58.207% | 26.82 (0.75) % | 23.388% and 25.790% and 27.706% and 30.409% | 26.823% | KCN | 0.078 | 7.6 µM | 24.8 µM |
